Laboratory results from ChEMBL document CHEMBL4411309, “Discovery of 2-substituted-N-(3-(3,4-dihydroisoquinolin-2(1H)-yl)-2-hydroxypropyl)-1,2,3,4-tetrahydroisoquinoline-6-carboxamide as potent and selective protein arginine methyltransferases 5 inhibitors: Design, synthesis and biological evaluation” (Eur J Med Chem, 2019).

Tests used:
[1] = Cmax in Sprague-Dawley rat at 10 mg/kg, po administered via gavage by LC-MS/MS analysis; format: ADME, organism-based; design: dose 10 mg/kg, route oral; conditions: in vivo
[2] = AUC in Sprague-Dawley rat at 10 mg/kg, po administered via gavage by LC-MS/MS analysis; format: ADME, organism-based; conditions: in vivo
[3] = Elimination half life in Sprague-Dawley rat at 10 mg/kg, po administered via gavage by LC-MS/MS analysis; format: ADME, organism-based; conditions: in vivo, read-out: beta t1/2 (converted)
[4] = test system: MV4-11; assay: Antitumor activity against human MV4-11 cells xenografted in Balb/c nude mouse assessed as tumor growth inhibition at 100 mg/kg, po administered once daily for 30 days relative to control; format: functional; conditions: MV4-11, po, 720 h, read-out: TGI
[5] = Tmax in Sprague-Dawley rat at 10 mg/kg, po administered via gavage by LC-MS/MS analysis; format: ADME, organism-based; conditions: in vivo
[6] = Aqueous solubility of the compound; format: physicochemical; conditions: buffer
[7] = target: Protein arginine N-methyltransferase 1 (Homo sapiens, UniProt Q99873); assay: Inhibition of human N-terminal GST-tagged PRMT1 (2 to end residues) expressed in baculovirus infected Sf9 insect cells preincubated for 15 mins followed by substrate and [3H]SAM addition and measured after 1 hr by microbeta method
[8] = target: Protein arginine N-methyltransferase 8 (Homo sapiens, UniProt Q9NR22); assay: Inhibition of human N-terminal His/FLAG-tagged PRMT8 (61 to 394 residues) expressed in baculovirus infected Sf9 insect cells preincubated for 15 mins followed by substrate addition and measured after 1 hr by Alphalisa assay
[9] = test system: MV4-11; assay: Antiproliferative activity against human MV4-11 cells supplemented with fresh medium containing compound every 4 days measured on day 12 by Celltiter-glo luminescent cell viability assay; format: functional
[10] = target: T1, Histone-arginine methyltransferase CARM1 (Homo sapiens, UniProt Q86X55); assay: Inhibition of human N-terminal FLAG-tagged PRMT4 (2 to end residues) expressed in FreeStyle 293-F cells preincubated for 15 mins followed by substrate addition and measured after 1 hr by Alphalisa assay; format: cell-based
T1 sequence (Q86X55 whole entry): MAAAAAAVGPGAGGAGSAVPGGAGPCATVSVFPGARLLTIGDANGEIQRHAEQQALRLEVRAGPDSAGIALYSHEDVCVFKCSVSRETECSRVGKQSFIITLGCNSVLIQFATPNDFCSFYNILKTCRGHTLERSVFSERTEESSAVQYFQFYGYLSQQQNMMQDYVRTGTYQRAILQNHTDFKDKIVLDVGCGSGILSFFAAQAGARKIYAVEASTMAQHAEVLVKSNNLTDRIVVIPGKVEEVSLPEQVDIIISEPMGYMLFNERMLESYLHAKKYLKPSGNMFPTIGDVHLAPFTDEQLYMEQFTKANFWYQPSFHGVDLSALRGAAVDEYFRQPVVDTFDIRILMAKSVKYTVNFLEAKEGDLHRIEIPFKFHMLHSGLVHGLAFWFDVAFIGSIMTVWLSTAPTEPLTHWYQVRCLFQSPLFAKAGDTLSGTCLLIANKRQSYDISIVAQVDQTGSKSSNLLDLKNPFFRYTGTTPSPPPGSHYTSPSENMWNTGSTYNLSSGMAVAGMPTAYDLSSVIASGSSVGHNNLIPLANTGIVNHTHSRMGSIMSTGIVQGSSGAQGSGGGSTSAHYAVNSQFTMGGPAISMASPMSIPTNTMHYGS

[11] = test system: MV4-11; assay: Antiproliferative activity against human MV4-11 cells supplemented with fresh medium containing compound every 4 days measured on day 8 by Celltiter-glo luminescent cell viability assay; format: functional
[12] = target: Protein arginine N-methyltransferase 6 (Homo sapiens, UniProt Q96LA8); assay: Inhibition of human N-terminal His-tagged PRMT6 (2 to 375 residues) expressed in Escherichia coli preincubated for 15 mins followed by substrate addition and measured after 1 hr by Alphalisa assay
[13] = target: T2, Protein arginine N-methyltransferase 7 (Homo sapiens, UniProt Q9NVM4); assay: Inhibition of recombinant full length human N-terminal FLAG-tagged PRMT7 expressed in Sf9 insect cells preincubated for 15 mins followed by substrate and [3H]SAM addition and measured after 240 mins by microbeta method
T2 sequence (Q9NVM4 whole entry): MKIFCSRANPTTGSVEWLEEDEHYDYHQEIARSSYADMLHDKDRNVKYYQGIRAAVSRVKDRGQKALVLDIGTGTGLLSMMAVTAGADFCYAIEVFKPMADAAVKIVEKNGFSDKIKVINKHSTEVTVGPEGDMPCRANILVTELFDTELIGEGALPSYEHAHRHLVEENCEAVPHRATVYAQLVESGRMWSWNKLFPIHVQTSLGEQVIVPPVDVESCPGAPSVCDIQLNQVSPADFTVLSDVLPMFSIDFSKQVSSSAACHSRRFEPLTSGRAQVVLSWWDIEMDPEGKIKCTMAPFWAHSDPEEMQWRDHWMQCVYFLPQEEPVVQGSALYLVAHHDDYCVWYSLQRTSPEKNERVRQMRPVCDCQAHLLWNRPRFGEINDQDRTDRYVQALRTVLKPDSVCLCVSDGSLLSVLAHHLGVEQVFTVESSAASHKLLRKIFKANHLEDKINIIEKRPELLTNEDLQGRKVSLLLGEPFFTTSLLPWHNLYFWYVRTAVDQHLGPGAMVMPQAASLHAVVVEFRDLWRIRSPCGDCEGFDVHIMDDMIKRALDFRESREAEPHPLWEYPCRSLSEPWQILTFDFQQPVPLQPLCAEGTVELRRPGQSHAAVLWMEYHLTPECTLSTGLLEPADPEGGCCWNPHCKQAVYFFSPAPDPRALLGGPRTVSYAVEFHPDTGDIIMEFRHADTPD

[14] = target: PRMT5/MEP50 complex (Homo sapiens, UniProt O14744); assay: Inhibition of recombinant human N-terminal FLAG-tagged PRMT5 (2 to end residues)/human N-terminal His-tagged MEP50 (2 to end residues) expressed in HEK293F cells using H4 peptide as substrate preincubated for 15 mins followed by substrate and [3H]SAM addition and measured after 1 hr by scintillation counting method
[15] = target: Protein arginine N-methyltransferase 3 (Homo sapiens, UniProt O60678); assay: Inhibition of human N-terminal GST-tagged PRMT3 (2 to end residues) expressed in Escherichia coli preincubated for 15 mins followed by substrate addition and measured after 1 hr by Alphalisa assay
Protein arginine N-methyltransferase 3, sequence (O60678 whole entry): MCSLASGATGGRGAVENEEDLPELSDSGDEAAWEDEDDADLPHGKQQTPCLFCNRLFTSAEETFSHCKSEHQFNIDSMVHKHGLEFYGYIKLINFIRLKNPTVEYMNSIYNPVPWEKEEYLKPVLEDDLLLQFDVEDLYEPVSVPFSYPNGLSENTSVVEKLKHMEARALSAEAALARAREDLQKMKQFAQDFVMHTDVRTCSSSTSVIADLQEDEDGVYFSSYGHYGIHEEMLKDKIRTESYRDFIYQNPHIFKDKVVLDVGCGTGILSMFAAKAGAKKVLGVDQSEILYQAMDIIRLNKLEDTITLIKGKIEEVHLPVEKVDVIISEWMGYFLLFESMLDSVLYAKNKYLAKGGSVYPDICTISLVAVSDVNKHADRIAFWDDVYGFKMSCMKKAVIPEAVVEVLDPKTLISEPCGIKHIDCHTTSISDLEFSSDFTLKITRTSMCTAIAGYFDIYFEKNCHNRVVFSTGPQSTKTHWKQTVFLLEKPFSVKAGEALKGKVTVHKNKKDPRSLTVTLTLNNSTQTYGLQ

PRMT5/MEP50 complex, sequence (O14744 whole entry): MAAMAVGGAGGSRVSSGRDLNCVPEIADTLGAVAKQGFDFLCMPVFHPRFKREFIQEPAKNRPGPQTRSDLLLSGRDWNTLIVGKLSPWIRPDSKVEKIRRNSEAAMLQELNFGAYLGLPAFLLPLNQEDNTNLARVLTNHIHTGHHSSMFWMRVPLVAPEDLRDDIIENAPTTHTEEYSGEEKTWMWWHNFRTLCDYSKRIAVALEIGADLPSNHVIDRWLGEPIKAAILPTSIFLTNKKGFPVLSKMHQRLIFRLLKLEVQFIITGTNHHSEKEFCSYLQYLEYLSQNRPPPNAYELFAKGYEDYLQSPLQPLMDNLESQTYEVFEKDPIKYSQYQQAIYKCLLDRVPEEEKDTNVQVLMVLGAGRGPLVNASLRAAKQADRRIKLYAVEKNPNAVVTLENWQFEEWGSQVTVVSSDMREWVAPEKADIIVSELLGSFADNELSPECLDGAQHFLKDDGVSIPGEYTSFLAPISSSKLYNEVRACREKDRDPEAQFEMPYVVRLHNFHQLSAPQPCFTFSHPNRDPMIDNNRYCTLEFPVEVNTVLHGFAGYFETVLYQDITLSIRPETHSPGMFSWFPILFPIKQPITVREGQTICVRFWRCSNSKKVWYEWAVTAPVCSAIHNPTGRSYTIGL
PRMT5/MEP50 complex, sequence (Q9BQA1 whole entry, further chain): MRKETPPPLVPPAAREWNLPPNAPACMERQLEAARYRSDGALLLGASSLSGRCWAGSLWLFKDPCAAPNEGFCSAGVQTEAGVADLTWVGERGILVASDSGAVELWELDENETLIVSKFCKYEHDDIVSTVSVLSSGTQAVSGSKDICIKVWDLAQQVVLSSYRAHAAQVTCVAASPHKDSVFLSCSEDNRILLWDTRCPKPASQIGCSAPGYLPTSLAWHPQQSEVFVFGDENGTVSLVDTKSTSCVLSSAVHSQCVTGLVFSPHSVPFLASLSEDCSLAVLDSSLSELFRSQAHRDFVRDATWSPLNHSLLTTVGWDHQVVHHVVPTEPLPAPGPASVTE
Protein arginine N-methyltransferase 6, sequence (Q96LA8 whole entry, the tested form may be a part): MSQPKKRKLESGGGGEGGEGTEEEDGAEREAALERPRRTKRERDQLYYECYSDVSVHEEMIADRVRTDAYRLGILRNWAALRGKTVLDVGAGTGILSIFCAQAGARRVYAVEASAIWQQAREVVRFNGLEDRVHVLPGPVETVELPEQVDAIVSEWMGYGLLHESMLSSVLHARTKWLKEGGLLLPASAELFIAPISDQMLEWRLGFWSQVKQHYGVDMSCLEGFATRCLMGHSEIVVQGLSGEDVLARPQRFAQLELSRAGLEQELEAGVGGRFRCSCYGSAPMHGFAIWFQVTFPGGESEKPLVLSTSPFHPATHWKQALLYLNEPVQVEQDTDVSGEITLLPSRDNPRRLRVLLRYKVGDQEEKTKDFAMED
Protein arginine N-methyltransferase 8, sequence (Q9NR22 whole entry, the tested form may be a part): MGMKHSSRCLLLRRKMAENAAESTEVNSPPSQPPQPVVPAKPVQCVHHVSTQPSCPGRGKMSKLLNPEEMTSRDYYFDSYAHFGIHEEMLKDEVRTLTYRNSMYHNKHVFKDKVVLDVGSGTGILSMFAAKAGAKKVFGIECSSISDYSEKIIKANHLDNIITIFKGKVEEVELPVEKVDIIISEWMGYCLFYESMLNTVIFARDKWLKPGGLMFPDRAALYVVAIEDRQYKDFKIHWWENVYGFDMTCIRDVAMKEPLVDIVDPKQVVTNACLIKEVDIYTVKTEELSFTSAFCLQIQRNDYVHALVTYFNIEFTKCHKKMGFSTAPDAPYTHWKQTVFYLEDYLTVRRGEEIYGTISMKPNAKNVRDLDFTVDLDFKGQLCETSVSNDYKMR
Protein arginine N-methyltransferase 1, sequence (Q99873 whole entry, the tested form may be a part): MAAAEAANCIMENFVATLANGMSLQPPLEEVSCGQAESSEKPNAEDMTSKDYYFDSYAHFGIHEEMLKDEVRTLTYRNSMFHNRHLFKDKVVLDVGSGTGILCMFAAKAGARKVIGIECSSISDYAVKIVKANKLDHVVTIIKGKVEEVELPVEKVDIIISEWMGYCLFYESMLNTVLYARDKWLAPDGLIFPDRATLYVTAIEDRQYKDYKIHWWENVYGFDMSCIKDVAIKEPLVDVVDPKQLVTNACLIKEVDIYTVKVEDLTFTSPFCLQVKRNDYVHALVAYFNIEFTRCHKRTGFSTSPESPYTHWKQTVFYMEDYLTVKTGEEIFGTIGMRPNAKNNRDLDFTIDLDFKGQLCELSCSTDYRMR

SMILES	Cmax [1]	AUC [2]	half-life [3]	inhibition in vivo at 100 mg/kg [4]	Tmax [5]	solubility [6]	IC50 [7]	IC50 [8]	GI50 [9]	IC50 [10]	GI50 [11]	IC50 [12]	IC50 [13]	IC50 [14]	IC50 [15]
Cl.O=C(NC[C@H](O)CN1CCc2ccccc2C1)c1ccc2c(c1)CCN(C(=O)c1ccc(Br)cc1)C2	32 ng/mL	168 ng·h/mL	4.6 h	54%	0.583 h	Soluble	–	–	–	–	–	–	–	–	–
O=C(NC[C@H](O)CN1CCc2ccccc2C1)c1ccc2c(c1)CCN(C(=O)c1ccc(Br)cc1)C2	–	–	–	–	–	Insoluble	> 100 µM	> 100 µM	0.018 µM	> 100 µM	0.025 µM	> 100 µM	> 100 µM	0.0085 µM	> 100 µM
